For series [1] the following is noted: solvent not stated.
Series [2] is described as follows: Viscosity of the solution. The class given is physicochemical. The following applies: at a concentration of […].

On to `O=C(O)CCC[c-]1cccc1.[Fe+2].c1cc[cH-]c1` [4-ferrocene butyric acid], for which the “maximum concentration dissolved, after which solid precipitated from the solution” value in series [1] is listed as 0.251 M.

The viscosity is the internal friction of a fluid under shear. Lower therefore signals easy flow. With N-(4-ferrocenylbutanoyl)-L-glutamate, the viscosity in series [2] worked out at 3.7 cP.

Source of the values: patent US20250163089A1, “Branched Molecules for Redox Flow Batteries” (XL Batteries, Inc., priority 2023, published 2025).
